How the values were obtained:
Assay in all cases: relative viability (nuclei count vs DMSO), 5 days (fraction); higher = more cells survive
[1] = compound: O[C@H]1CC[C@H](Nc2ncc3nc(Nc4c(F)cc(F)cc4F)n([C@H]4CCOC4)c3n2)CC1 [Tanzisertib] + CC(=O)c1c(C)c2cnc(Nc3ccc(N4CCNCC4)cn3)nc2n(C2CCCC2)c1=O [Palbociclib] (partner 0.5 µM)
How it was run: (§1)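 Lung cancer cell lines in 1536-well plates were dosed by pin tool the day after seeding, either with one drug alone or with a fixed anchor-drug dose plus five library-drug doses (not always all listed) in √10 steps. After 5 days, cells were fixed and their nuclei stained in one step (final 0.05% Triton X-100, 1% formaldehyde, 1 ug/ml Hoechst), then counted on 4× images. Relative viability is the nuclei count in treated wells divided by that in vehicle wells. Values are medians of duplicate plates.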

[2] = compound: C[C@@H](N)c1ccc(C(=O)Nc2ccnc3[nH]ccc23)cc1 + CS(=O)(=O)N1CCN(Cc2cc3nc(-c4cccc5[nH]ncc45)nc(N4CCOCC4)c3s2)CC1 [Pictilisib] (partner 1 µM)
How it was run: as §1

[3] = compound: C[C@@H](N)c1ccc(C(=O)Nc2ccnc3[nH]ccc23)cc1 + CC1(C)CCC(c2ccc(Cl)cc2)=C(CN2CCN(c3ccc(C(=O)NS(=O)(=O)c4ccc(N[C@H](CCN5CCOCC5)CSc5ccccc5)c(S(=O)(=O)C(F)(F)F)c4)cc3)CC2)C1 [Navitoclax] (partner 0.5 µM)
How it was run: as §1

[4] = compound: O[C@H]1CC[C@H](Nc2ncc3nc(Nc4c(F)cc(F)cc4F)n([C@H]4CCOC4)c3n2)CC1 [Tanzisertib] + C[C@]1(O)C[C@@H](c2nc(-c3ccc4ccc(-c5ccccc5)nc4c3)c3c(N)nccn32)C1 [Linsitinib] (partner 1 µM)
How it was run: as §1

## UMC-11
[1]; first compound 0.08 µM
  relative viability: 0.346
[1]; first compound 0.253 µM
  relative viability: 0.285
[1]; first compound 0.8 µM
  relative viability: 0.319
[1]; first compound 2.53 µM
  relative viability: 0.325
[1]; first compound 8 µM
  relative viability: 0.355
[2]; first compound 0.04 µM
  relative viability: 0.715
[2]; first compound 0.1265 µM
  relative viability: 0.759
[2]; first compound 0.4 µM
  relative viability: 0.93
[2]; first compound 1.265 µM
  relative viability: 0.177
[2]; first compound 4 µM
  relative viability: 0.767
[3]; first compound 0.04 µM
  relative viability: 0.318
[3]; first compound 0.1265 µM
  relative viability: 0.323
[3]; first compound 0.4 µM
  relative viability: 0.332
[3]; first compound 1.265 µM
  relative viability: 0.27
[3]; first compound 4 µM
  relative viability: 0.211
[4]; first compound 0.08 µM
  relative viability: 1
[4]; first compound 0.253 µM
  relative viability: 0.954
[4]; first compound 0.8 µM
  relative viability: 1.03
[4]; first compound 2.53 µM
  relative viability: 0.988
[4]; first compound 8 µM
  relative viability: 1.06

Reference: the supplement of paper PMC10307832
